Data taken from patent US5561119A, “Glycosylated prodrugs, their method of preparation and their uses” (Laboratoires Hoechst, priority 1991, dated 1996).
In brackets after ≈: the same amount, converted by molar mass.

Tests used:
[1] = incubation of 60 with α-galactosidase from unroasted coffee beans (HPLC); assay type: biochemical, [550, 560, 561]; conditions: pH 6.8 (0.02M phosphate buffer), 37° C., 0.04 U/ml enzyme, 60 at 660 μg/ml
[2] = hydrolysis of acetates in vivo; conditions: 6, 13 and 48a to 7, 14 and 48b respectively
[3] = Proliferation test (MTT reduction) in L1210 tumoral cells; assay type: cell-based, [569, 570, 571, 572, 573, 575]; conditions: 72 hours, 37° C.
[4] = hydrolysis of 48b by α-galactosidase (HPLC); assay type: biochemical, [550, 552, 554]; conditions: placental alpha-galactosidase; α-galactosidase from human placenta, 0.075M N-acetylgalactosamine, 37° C., pH 5 (0.02M phosphate buffer); read-out: half-life of hydrolysis of the glycoside (converted)
stability in plasma = assay type: in vitro ADME
[5] = cleavability of glycosylated prodrugs by recombinant β-glucuronidase (reversed-phase HPLC); conditions: for half-life: beta-glucuronidase; for t1/2 arm: time for conversion of 50% of the anthracycline/arm compound to active anthracycline, 37° C., 1 U/ml, pH 7.2 to 6.8
[6] = cleavability of glycosylated prodrugs by α-galactosidase from coffee beans (reversed-phase HPLC); assay type: biochemical, [595, 596, 597]; conditions: 37° C., 1 U/ml, pH 7.2 to 6.8
[7] = beta-glucuronidase

Compound: COc1cccc2c1C(=O)c1c(O)c3c(c(O)c1C2=O)C[C@@](O)(C(C)=O)C[C@@H]3O[C@H]1C[C@H](NC(=O)OCc2ccc(O)c(Cl)c2)[C@H](O)[C@H](C)O1 [deglycosidated derivative 60]
- detection of the deglycosidated derivative [1]: not detected because of its high rate of disappearance

Compound: COc1cccc2c1C(=O)c1c(O)c3c(c(O)c1C2=O)C[C@@](O)(C(C)=O)C[C@@H]3O[C@H]1C[C@H](NC(=O)OCc2ccc(O[C@H]3O[C@H](COC(C)=O)[C@H](OC(C)=O)[C@H](OC(C)=O)[C@H]3OC(C)=O)cc2)[C@H](O)[C@H](C)O1 [derivative 6, N-[4-(2,3,4,6-Tetra-O-acetyl-α-D-galactopyranosyl)benzyloxycarbonyl]daunorubicin]
- hydrolysis in vivo to the deacetylated prodrug [2]: hydrolyzed in vivo
- IC50 [3]: > 1 µg/mL

Compound: COc1cccc2c1C(=O)c1c(O)c3c(c(O)c1C2=O)C[C@@](O)(C(C)=O)C[C@@H]3O[C@H]1C[C@H](NC(=O)OCc2ccc(O[C@H]3O[C@H](CO)[C@H](O)[C@H](O)[C@H]3O)cc2)[C@H](O)[C@H](C)O1 [derivative 7, N-[4-(α-D-Galactopyranosyl)benzyloxycarbonyl]daunorubicin]
- IC50 [3]: > 1 µg/mL

Compound: COc1cccc2c1C(=O)c1c(O)c3c(c(O)c1C2=O)C[C@@](O)(C(C)=O)C[C@@H]3O[C@H]1C[C@H](NC(=O)OCc2ccccc2O[C@H]2O[C@H](COC(C)=O)[C@H](OC(C)=O)[C@H](OC(C)=O)[C@H]2OC(C)=O)[C@H](O)[C@H](C)O1 [derivative 13, N-[2-(2,3,4,6-Tetra-O-acetyl-α-D-galactopyranosyl)benzyloxycarbonyl]daunorubicin]
- hydrolysis in vivo to the deacetylated prodrug [2]: hydrolyzed in vivo
- IC50 [3]: > 1 µg/mL

Compound: COc1cccc2c1C(=O)c1c(O)c3c(c(O)c1C2=O)C[C@@](O)(C(C)=O)C[C@@H]3O[C@H]1C[C@H](NC(=O)OCc2ccccc2O[C@H]2O[C@H](CO)[C@H](O)[C@H](O)[C@H]2O)[C@H](O)[C@H](C)O1 [derivative 14, N-[2-(α-D-Galactopyranosyl)benzyloxycarbonyl]daunorubicin]
- IC50 [3]: > 1 µg/mL

Compound: COc1cccc2c1C(=O)c1c(O)c3c(c(O)c1C2=O)C[C@@](O)(C(C)=O)C[C@@H]3O[C@H]1C[C@H](NC(=O)OCc2ccc(O[C@@H]3O[C@H](C(=O)O)[C@@H](O)[C@H](O)[C@H]3O)cc2)[C@H](O)[C@H](C)O1 [derivative 22, N-(4-Hydroxybenzyloxycarbonyl)daunorubicin β-D-glucuronide]
- IC50 [3]: > 10 µg/mL

Compound: COc1cccc2c1C(=O)c1c(O)c3c(c(O)c1C2=O)C[C@@](O)(C(C)=O)C[C@@H]3O[C@H]1C[C@H](NC(=O)OCc2ccccc2O[C@@H]2O[C@H](C(=O)O)[C@@H](O)[C@H](O)[C@H]2O)[C@H](O)[C@H](C)O1 [derivative 27c, N-[2-((β-D-Glucopyranosyl)uronic acid)benzyloxycarbonyl]daunorubicin]
- IC50 [3]: > 1 µg/mL

Compound: COc1cccc2c1C(=O)c1c(O)c3c(c(O)c1C2=O)C[C@@](O)(C(C)=O)C[C@@H]3O[C@H]1C[C@H](NC(=O)OCc2cc([N+](=O)[O-])ccc2O[C@H]2O[C@H](COC(C)=O)[C@H](OC(C)=O)[C@H](OC(C)=O)[C@H]2OC(C)=O)[C@H](O)[C@H](C)O1 [derivative 48a, N-[2-(2,3,4,6-Tetra-O-acetyl-α-D-galactopyranosyl)-5-nitrobenzyloxycarbonyl]daunorubicin]
- hydrolysis in vivo to the deacetylated prodrug [2]: hydrolyzed in vivo
- IC50 [3]: > 10 µg/mL

Compound: COc1cccc2c1C(=O)c1c(O)c3c(c(O)c1C2=O)C[C@@](O)(C(C)=O)C[C@@H]3O[C@H]1C[C@H](NC(=O)OCc2cc([N+](=O)[O-])ccc2O[C@H]2O[C@H](CO)[C@H](O)[C@H](O)[C@H]2O)[C@H](O)[C@H](C)O1 [derivative 48b, N-[2-(α-D-Galactopyranosyl)-5-nitrobenzyloxycarbonyl]daunorubicin]
- IC50 [3]: > 1 µg/mL
- half-life [4]: 60 min
- stability in plasma (stability in plasma): stable in plasma

Compound: COc1cccc2c1C(=O)c1c(O)c3c(c(O)c1C2=O)C[C@@](O)(C(C)=O)C[C@@H]3O[C@H]1C[C@H](NC(=O)OCc2cc([N+](=O)[O-])ccc2O[C@@H]2O[C@H](C(=O)O)[C@@H](O)[C@H](O)[C@H]2O)[C@H](O)[C@H](C)O1 [derivative 54c, N-[2-((β-D-Glucopyranosyl)uronic acid)-5-nitrobenzyloxycarbonyl]daunorubicin]
- half-life [5]: 41.4 min
- t1/2 arm [5]: 5,30 h

Compound: COc1cccc2c1C(=O)c1c(O)c3c(c(O)c1C2=O)C[C@@](O)(C(C)=O)C[C@@H]3O[C@H]1C[C@H](NC(=O)OCc2ccc(O[C@H]3O[C@H](CO)[C@H](O)[C@H](O)[C@H]3O)c(Cl)c2)[C@H](O)[C@H](C)O1 [derivative 60, N-[3-Chloro-4-(α-D-galactopyranosyl)benzyloxycarbonyl]daunorubicin]
- half-life ([6]; alpha-galactosidase, time for cleavage of 50% of the glycoside, read-out: t1/2 cleavage of the glycoside (converted)): 1.2 min
- t1/2 arm ([6]; time for conversion of 50% of the anthracycline/arm compound to active anthracycline): < 0,08 h

Compound: COc1cccc2c1C(=O)c1c(O)c3c(c(O)c1C2=O)C[C@@](O)(C(C)=O)C[C@@H]3O[C@H]1C[C@H](NC(=O)OCc2ccc(O[C@@H]3O[C@H](C(=O)O)[C@@H](O)[C@H](O)[C@H]3O)c([N+](=O)[O-])c2)[C@H](O)[C@H](C)O1 [derivative 64c, N-(4-Hydroxy-3-nitrobenzyloxycarbonyl)daunorubicin β-D-glucuronide]
- half-life [5]: 25.2 min
- t1/2 arm [5]: < 0,08 h

Compound: COc1cc(O[C@@H]2O[C@H](C(=O)O)[C@@H](O)[C@H](O)[C@H]2O)c(COC(=O)N[C@H]2C[C@H](O[C@H]3C[C@](O)(C(C)=O)Cc4c(O)c5c(c(O)c43)C(=O)c3c(OC)cccc3C5=O)O[C@@H](C)[C@H]2O)cc1[N+](=O)[O-] [derivative 68c, N-[4-Methoxy-5-nitro-2-((β-D-glucopyranosyl)uronic acid)benzyloxycarbonyl]daunorubicin]
- half-life [5]: 113 min
- t1/2 arm [5]: 0,75 h

Compound: COc1cccc2c1C(=O)c1c(O)c3c(c(O)c1C2=O)CC(O)(C(=O)CO)CC3OC1CC(NC(=O)OCc2ccc(OC3OC(C(=O)O)C(O)C(O)C3O)c([N+](=O)[O-])c2)C(O)C(C)O1 [derivative 70c, N-[4-hydroxy-3-nitro-benzyloxy-carbonyl) doxorubicin β-D-glucuronide]
- t1/2 cleavage of the glycoside [7]: 0,92 h

Compound: COc1cccc2c1C(=O)c1c(O)c3c(c(O)c1C2=O)C[C@@](O)(C(C)=O)C[C@@H]3O[C@H]1C[C@H](NC(=O)OCc2cc(Cl)ccc2O[C@@H]2O[C@H](C(=O)O)[C@@H](O)[C@H](O)[C@H]2O)[C@H](O)[C@H](C)O1 [derivative 82c, N-[2-((β-D-glucopyranosyl)uronic acid)-5-chlorobenzyloxycarbonyl]daunorubicin]
- half-life [5]: 244 min
- t1/2 arm [5]: 12,00 h

Compound: COc1cccc2c1C(=O)c1c(O)c3c(c(O)c1C2=O)C[C@@](O)(C(=O)CO)C[C@@H]3O[C@H]1C[C@H](N)[C@H](O)[C@H](C)O1 [doxorubicin, reference compound]
- IC50 [3]: 0.02 µg/mL (≈ 0.0368 µM)
